Reference: patent US9109001B2, “3′,5′-cyclic phosphoramidate prodrugs for HCV infection” (priority 2012, dated 2015)
Where two headings read alike, the source gives them in different places.

Legend:
Zluc cells = assay: Cytotoxicity evaluation (CellTiter-Blue Cell Viability Assay); assay type: cell-based, human; details: read-out: HCV Replicon CC50
fresh human hepatocytes = assay: Release of active metabolite in fresh human hepatocytes; assay type: in vitro ADME; details: 10 μM
Method: Assay for the Release of Active Metabolite in Primary Hepatocytes: Plates of fresh human and mouse hepatocytes were obtained on ice. The medium was removed and replaced with hepatocyte culture medium (William's E supplemented with penicillin-streptomycin, 1% L-glutamine, 1% insulin-transferrin-selenium and 0.1 μM Dexamethasone (Invitrogen) or with Invitro GRO HI medium complemented with Torpedo antibiotics (Celsis)). Cells were left overnight in an incubator at 37° C. to acclimatize to culture and the medium.
Hepatocyte incubations were conducted at a final volume of 0.5 mL hepatocyte culture medium/well (0.8 million cells/well for human and 0.5 million cells/well for mouse; 12 well plate no overlay, collagen coat). Culture medium from overnight incubation of cells was removed and replaced with fresh medium, pre-warmed to 37° C., containing 10 μM of test compound from a stock solution in DMSO (final DMSO concentration was 0.1%). At each specific time point, incubation medium was removed and cell monolayers were carefully washed two times with ice-cold PBS. Following the last wash, all PBS was carefully removed and 1.0 mL of extraction solution (ice-cold 70% methanol/30% water) added. Cells were scraped off and suspended in the extraction solution, transferred to 2 mL polypropylene microfuge tubes and intracellular contents extracted overnight at −20° C.
After the overnight treatment the cellular extracts were prepared by centrifugation at 16,000×g for 10 min to remove cellular debris. The remaining sample was then dried using a refrigerated centrivap concentrator. Dry extracts were reconstituted in 1000 μL of HPLC-grade water and centrifuged at 16,000×g for 10 min. Aliquots (100 μL each) of the supernatant were transferred into a 96 well plate and internal standard (4 ng/mL final concentration) was added as the internal standard (IS) for LC-MS/MS analysis.
The incubation time points were 6, 24 and 48 hours for human hepatocytes and 1, 4, 8, 12 and 24 hours for mouse hepatocytes.

[1] = Stability in fresh human whole blood; assay type: in vitro ADME; details: 0.5 μM, percent unchanged test compound
Method: (§1) Stability in Fresh Whole Blood: Stability of test compounds were determined in fresh human whole blood with K2EDTA as the anticoagulant (stored refrigerated at 2-8° C. and used within 7 days of receipt). The experiment was conducted with three replicates for each time point. Whole blood, pre-incubated at 37° C. for 10-15 minutes, was fortified with a solution of test compound for a final concentration of 0.5 μM and mixed for 30 sec. At intervals (0, 0.5, 1 and 2 hr), three 50-μL aliquots were combined with 200 μL (each) of an ice-cold solution of the internal standard (carbutamide 500 ng/mL in acetonitrile). The samples were vortexed for 30 sec and then centrifuged at 16,100 g for 5 min. The supernatant was analyzed by LC-MS/MS. The MS peak area ratio of the test compound versus the internal standard was calculated and percent unchanged test compound was calculated for each time point using this ratio.

HCV genotype 1b replicon = assay: HCV Replicon Assay; assay type: cell-based; details: Zluc (Huh-7-derived) cells, HCV genotype 1b replicon, luciferase reporter, 72 hours, read-out: HCV Replicon EC50
Method: Huh-7-derived cell line (Zluc) that harbors an HCV genotype 1b replicon and a luciferase reporter gene was grown in Dulbecco's Modified Eagle Medium (DMEM) supplemented with 10% fetal bovine serum, 2 mM GlutaMAX, 1% MEM nonessential amino acids, 100 IU/mL penicillin, 100 μg/mL streptomycin, and 0.5 mg/mL Geneticin® (G418). For dose response testing the cells were seeded in 96-well plates at 7.5×10^3 cells per well in a volume of 50 μL, and incubated at 37° C./5% CO2. Drug solutions were made up freshly in Huh-7 media as 2× stocks. Ten additional 5-fold dilutions were prepared from these stocks in DMEM without G418. At least three hours after Zluc cells were seeded, drug treatment was initiated by adding 50 μL of drug dilutions to the plates in duplicate. Final concentrations of drug ranged from 100 μM to […]. Cells were then incubated at 37° C./5% CO2. Alternatively, compounds were tested at two concentrations (1 μM and 10 μM). […] For this, media was removed from the plates via gentle tapping. Fifty microliters of ONE-glo luciferase assay reagent was added to each well. The plates were shaken gently for 3 min at room temperature and luminescence was measured on a Victor^3 V 1420 multilabel counter (Perkin Elmer) with a 1 second read time using a 700 nm cut-off filter. The EC50 values were calculated from dose response curves from the resulting best-fit equations determined by Microsoft Excel and XLfit 4.1 software. When screening at two fixed concentrations, the results were expressed as % inhibition at 1 μM and 10 μM.

[2] = Stability in simulated intestinal fluid; assay type: in vitro ADME; details: 100 μM, 2 hours at 37° C.; percent of peak area at time zero
Method: Stability in Simulated Gastric and Intestinal Fluids: Simulated gastric and intestinal fluids containing pepsin and pancreatin respectively were prepared according to the U.S. Pharmacopoeia USP291 procedure (www.pharmacopeia.cn/v29240/usp29nf24s0_ris1s126.html). Test compound (final concentration 100 μM) was incubated in duplicate in the appropriate fluid for 2 hours at 37° C. The samples were quenched with 200 μl cold acetonitrile, vortexed for 30 seconds and then centrifuged at 16,100 g for 10 min. The supernatants were analyzed by HPLC on a C-18 column with UV detection at 252 nm. The time 0 samples were prepared by adding SGF or SIF fluid to the quenching solvent followed by the test compound. Stability of the compound was determined by peak area the test compound after incubation and calculated as percent of the peak area observed at time zero.

[3] = Cytotoxicity evaluation (CellTiter-Blue Cell Viability Assay); assay type: cell-based, human; details: human, Zluc cells, read-out: HCV Replicon CC50
Stability in mouse blood = assay type: in vitro ADME; details: on ice, percent unchanged test compound
Method: as §1
The stability in mouse blood was determined on ice at 0, 0.5 and 1 hr as above.

[4] = Stability in human liver microsomes; assay type: in vitro ADME; details: 10 μM, 1.0 mg/mL protein, NADPH, 60 min; percent unchanged
Method: Stability in Liver and Intestinal Subcellular Fractions: Stability of test compounds were determined in subcellular fractions (microsomes and S9) of human liver and intestine in duplicate for each matrix. Pooled liver and intestinal microsomal, intestinal and liver S9 proteins (1.0 mg/mL), suspended in incubation buffer (100 mM potassium phosphate, pH 7.4, 5 mM MgCl2, and 0.1 mM EDTA), were preincubated for 5 min at 37° C. with 10 μM of a test compound from a 10 mM stock solution in DMSO (final DMSO concentration was 0.1%); the reaction was initiated by the addition of NADPH (3 mM final concentration). At specific times (0 and 60 min), 0.1 mL samples were taken and the reaction terminated by the addition of 4 volumes of stop solution (acetonitrile with 500 ng/mL carbutamide as an internal standard). The samples were vortexed for 30 sec and then centrifuged at 16,000 g for 10 min. 100 μL of supernatants were transferred to 96 deep-well plates preloaded with 100 μL distilled water and analyzed after mixing by LC-MS/MS. The MS peak area ratio of the test compound versus the internal standard was calculated and percent unchanged test compound over 60 minutes was calculated using this ratio.

Row | SMILES | CC50 (Zluc cells) [nM] | FHH TP AUC (pmol · hr/mill cells) (fresh human hepatocytes) | Stability WB_Human (37° C.; 2 hr) [1] [%] | EC50 (HCV genotype 1b replicon) [nM] | Stability SIF [2] | CC50 [3] [nM] | Stability WB_Mouse (ice; 1 hr) (Stability in mouse blood) [%] | EC50 (HCV genotype 1b replicon; Hepatitis C virus, 72 h) [nM] | Stability HLM (1 hr) [4] [%]
1 | CCOc1nc(N)nc2c1ncn2[C@@H]1O[C@@H]2COP(=O)(N[C@@H](C)C(=O)OC3CCCC3)O[C@H]2[C@@]1(C)F (single isomer, unassigned) [Compound 10 Diastereomer 2] | ≤ 50000 | 2752 pmol · hr/mill cells | 80 | < 250 | 67% | – | – | – | –
2 | CCOc1nc(N)nc2c1ncn2[C@@H]1O[C@@H]2COP(=O)(N[C@@H](CC)COC(=O)C(C)C)O[C@H]2[C@@]1(C)F (single isomer, unassigned) [Compound 8 Diastereomer 2] | > 50000 | 359 pmol · hr/mill cells | 1 | < 250 | 69% | – | – | – | –
3 | CCOc1nc(N)nc2c1ncn2[C@@H]1O[C@@H]2COP(=O)(N[C@@H](C)C(=O)OCC(C)C)O[C@H]2[C@@]1(C)F (single isomer, unassigned) [Compound 4 Diastereomer 2] | > 50000 | 1575 pmol · hr/mill cells | 1 | < 250 | BLD^a | – | – | – | –
4 | CCOc1nc(N)nc2c1ncn2[C@@H]1O[C@@H]2COP(=O)(N[C@@H](C)C(=O)OCC(C)C)O[C@H]2[C@@]1(C)F (single isomer, unassigned) [Compound 4 Diastereomer 1] | – | 1759 pmol · hr/mill cells | 77 | – | 42% | > 50000 | 1 | < 250 | –
5 | CCOC(=O)C(C)(C)NP1(=O)OC[C@H]2O[C@@H](n3cnc4c(OCC)nc(N)nc43)[C@](C)(F)[C@@H]2O1 (single isomer, unassigned) [Compound 7 Diastereomer 1] | – | 1148 pmol · hr/mill cells | 96 | – | 91% | > 50000 | – | 250 to 1000 | –
6 | CCOc1nc(N)nc2c1ncn2[C@@H]1O[C@@H]2COP(=O)(N[C@@H](C)COC(=O)C(C)C)O[C@H]2[C@@]1(C)F (single isomer, unassigned) [Compound 3 Diastereomer 2] | – | 1426 pmol · hr/mill cells | 1 | – | 39% | > 50000 | 20 | < 250 | 0.3
7 | CCOc1nc(N)nc2c1ncn2[C@@H]1O[C@@H]2COP(=O)(N[C@@H](C)C(=O)OC(C)C)O[C@H]2[C@@]1(C)O (single isomer, unassigned) [Compound 5 Diastereomer 1] | – | 3615 pmol · hr/mill cells | 87 | 250 to 1000 | 5% | > 50000 | – | – | –
8 | CCOc1nc(N)nc2c1ncn2[C@@H]1O[C@@H]2COP(=O)(N[C@@H](C)COC(=O)C(C)C)O[C@H]2[C@@]1(C)F (stereo partly shown) [Compound 3] | – | – | – | – | – | > 50000 | – | < 250 | –
9 | CCOc1nc(N)nc2c1ncn2[C@@H]1O[C@@H]2COP(=O)(N[C@@H](CC)COC(=O)C(C)C)O[C@H]2[C@@]1(C)F (single isomer, unassigned) [Compound 8 Diastereomer 1] | – | 308 pmol · hr/mill cells | 18 | – | 15% | > 50000 | – | < 250 | –
10 | CCOc1nc(N)nc2c1ncn2[C@@H]1O[C@@H]2COP(=O)(N[C@@H](C)C(=O)OC3CCCC3)O[C@H]2[C@@]1(C)F (single isomer, unassigned) [Compound 10 Diastereomer 1] | – | 1944 pmol · hr/mill cells | 5 | – | 2% | > 50000 | – | < 250 | –
11 | CCOC(=O)C(C)(C)NP1(=O)OC[C@H]2O[C@@H](n3cnc4c(OCC)nc(N)nc43)[C@](C)(F)[C@@H]2O1 (single isomer, unassigned) [Compound 7 Diastereomer 2] | > 50000 | 830 pmol · hr/mill cells | 36 | < 250 | 102% | – | – | – | –
12 | CCOc1nc(N)nc2c1ncn2[C@@H]1O[C@@H]2COP(=O)(NCCC(=O)OC(C)C)O[C@H]2[C@@]1(C)F (single isomer, unassigned) [Compound 2 Diastereomer 1] | – | BLD^a | 98 | – | 98% | > 50000 | 15 | 250 to 1000 | 6.7
13 | CCOc1nc(N)nc2c1ncn2[C@@H]1O[C@@H]2COP(=O)(N[C@@H](C)C(=O)OC(C)C)O[C@H]2[C@@]1(C)O (single isomer, unassigned) [Compound 5 Diastereomer 2] | > 50000 | 2108 pmol · hr/mill cells | 83 | 1000 to 10000 | 77% | – | – | – | –
